In this assay the target is EncM (Streptomyces maritimus, UniProt Q9KHK2). The assay can be described thus: stopped-flow flavin reduction at […] nm, hyperbolic fit of kobs. The assay is classed as biochemical. To be noted: read-out: apparent Kd; EncM-Flox (oxidized, inactive flavin form), anaerobic, 4 °C, 0.1 M Tris-H2SO4 pH 7.5, 10% glycerol.

Our source for the Kd values is article PMC4720136 (Journal of the American Chemical Society, 2015).

Turning to `NC(=O)C1=CN([C@@H]2O[C@H](COP(=O)(O)OP(=O)(O)OC[C@H]3O[C@@H](n4cnc5c(N)ncnc54)[C@H](OP(=O)(O)O)[C@@H]3O)[C@@H](O)[C@H]2O)C=CC1` [NADPH], the Kd was determined as 0.26 ± 0.01 mM.
Then `NC(=O)C1=CN([C@@H]2O[C@H](COP(=O)(O)OP(=O)(O)OC[C@H]3O[C@@H](n4cnc5c(N)ncnc54)[C@H](O)[C@@H]3O)[C@@H](O)[C@H]2O)C=CC1` [NADH], with 9.3 ± 0.3 mM.
